A short description of this data set: Degradation studies with human plasma (20% human serum). The format is in vitro ADME. The following applies: 20% human serum (from human male AB plasma) in water, 37 °C, glycopeptide 0.5 mg·mL-1, sampled every hour, UPLC-micrOTOF-Q. The source says:
We examined then the stability of the unnatural MUC1 derivative in human plasma. To this end, we synthesized glycopeptides APDThr(α-D-GalNAc)RP and APDMeSer(α-D-GalNAc)RP (ESI ^†). The degradation of the glycopeptide containing threonine was faster (around 1.8-fold) compared to the unnatural compound. […]
an r−6 averaging. The equilibrium distance range was set to rexp − 0.2 Å ≤ rexp ≤ rexp + 0.2 Å.
Trajectories were run at 298 K, with a decay constant of 2000 ps and a time step of 1 fs.
The force constants rk2 and rk3 used in each case were 10 kcal·mol−1·Å−2. The overall simulation length for the simulations was 20 ns. The coordinates were saved each 1 ps, thus, obtaining MD trajectories of 20000 frames each. A convergence within the equilibrium distance range was obtained in the simulations. The analysis of the MD-tar trajectories has been carried out with the cpptraj modules of AMBER 12.
Degradation studies with human plasma.
Commercially available serum from human male AB plasma was used. […] Degradation of the peptides was determined every hour by using UPLC-micrOTOF-Q (column: ACQUITY UPLC BEH C18 1,7; diameter: 2.1 mm and length: 100 mm), eluting a mixture of 5 µL of the glycopeptide-serum solution in 795 µL of water and employing an isocratic method (70% H2O, 30% acetonitrile, temperature: […]

Regarding `CC(=O)N[C@H]1[C@@H](O[C@H](C)[C@H](NC(=O)[C@H](CC(=O)O)NC(=O)[C@@H]2CCCN2C(=O)[C@H](C)N)C(=O)N[C@@H](CCCNC(=N)N)C(=O)N2CCC[C@H]2C(N)=O)O[C@H](CO)[C@H](O)[C@@H]1O` [APDThr(α-D-GalNAc)RP], the “degradation, faster compared to the unnatural compound APDMeSer(α-D-GalNAc)RP” value is listed as “around 1.8 fold”.

The record behind these values is paper PMC5977504, “Mucin architecture behind the immune response: design, evaluation and conformational analysis of an antitumor vaccine derived from an unnatural MUC1 fragment” (Chemical Science, 2015).
